The results in this text go back to ChEMBL document CHEMBL1201862, “PubChem BioAssay data set” (2004).

Structures are written as SMILES.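 Results reflect a 48-hour exposure of cells in 96-well plates to compound at five concentrations. Here, GI50 denotes the concentration required for 50% inhibition of growth.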 Activity calls are given as the source filed them. Rule as the data show it: active = GI50 up to about 1.1 µM and inactive = higher. Where only a bound is given, the exact number is not on record here.

Among the test systems are ACHN; CAKI-1; HCT-15; KM12; LOX IMVI; MOLT-4; Malme-3M; NCI-H226; NCI-H522; OVCAR-3; OVCAR-4; OVCAR-8; SF-539; SK-OV-3; SN12C; SNB-19; UACC-257; UO-31.
What all share (experiment): inhibition of tumour cell growth, NCI panel, 48 h

In the case of `COc1ccc(N2C(=O)/C(=C/c3ccc(N(CCC#N)CCC#N)cc3C)N=C2/C=C\c2ccccc2)cc1`, the GI50 was 18.6 µM (inactive) in the experiment with ACHN; 29.2 µM (inactive) in the experiment on CAKI-1; 5.69 µM with HCT-15; 28.1 µM (inactive) with KM12; 28.8 µM (inactive) with LOX IMVI; 34.3 µM (inactive) in the experiment on MOLT-4. The GI50 in the experiment on Malme-3M is 41.6 µM (inactive); in the experiment on NCI-H226 it was > 100 µM (inactive); with NCI-H522 it was 17 µM (inactive); in the experiment with OVCAR-3, > 100 µM (inactive); with OVCAR-4, 47 µM (inactive); in the experiment with OVCAR-8, 42.7 µM (inactive). Also, the GI50 in the experiment on SF-539 is 10.8 µM (inactive); with SK-OV-3, 49.7 µM (inactive); in the experiment on SN12C, 4.35 µM (inactive); with SNB-19, > 100 µM (inactive); with UACC-257, 99.1 µM (inactive); with UO-31, 14 µM (inactive).

Consider `COC(=O)C1=C(C(=O)OC)C2(C)OC1C(=O)C21CC1` (configuration not stated), for which the GI50 in the experiment with ACHN was 19.3 µM (inactive); in the experiment on CAKI-1 it was 18.6 µM (inactive); in the experiment with HCT-15 it was 19.7 µM; with KM12 it was 30.5 µM (inactive); in the experiment with LOX IMVI it was 18.8 µM (inactive); with MOLT-4, 19.5 µM (inactive). Also, the GI50 in the experiment with Malme-3M is 23.9 µM (inactive); in the experiment on NCI-H226, > 100 µM (inactive); in the experiment with NCI-H522 it was 11.2 µM (inactive); with OVCAR-3, 22.1 µM (inactive); in the experiment on OVCAR-4, 10.6 µM (inactive); in the experiment on OVCAR-8, 24 µM (inactive). For the same compound, the GI50 in the experiment on SF-539 was 20.7 µM (inactive); in the experiment with SK-OV-3, > 100 µM (inactive); with SN12C it was 22.9 µM (inactive); in the experiment with SNB-19 it was > 100 µM (inactive); in the experiment on UACC-257, 57.1 µM (inactive); in the experiment on UO-31 it was 79.6 µM (inactive).

On to `O=C1C2C3SC(c4cc5ccccc5cc43)C2C(=O)N1c1ccccc1` (configuration not stated), for which the GI50 in the experiment with ACHN was 48.5 µM (inactive); in the experiment on CAKI-1, 45 µM (inactive); in the experiment on HCT-15, greater than 100 µM; with KM12, > 100 µM (inactive); with LOX IMVI, > 100 µM (inactive); with MOLT-4, > 100 µM (inactive). The GI50 was 70.3 µM (inactive) with Malme-3M; > 100 µM (inactive) in the experiment on NCI-H226; 75.7 µM (inactive) in the experiment on NCI-H522; > 100 µM (inactive) in the experiment on OVCAR-3; 39.4 µM (inactive) with OVCAR-4; 90.6 µM (inactive) with OVCAR-8. The GI50 in the experiment with SF-539 was 85.3 µM (inactive); with SK-OV-3 it was > 100 µM (inactive); with SN12C, > 100 µM (inactive); in the experiment on SNB-19, 30.7 µM (inactive); in the experiment with UACC-257, > 100 µM (inactive); in the experiment with UO-31, > 100 µM (inactive).

Take `CC(=O)OC1CC2C(C)(C)C(=O)C=C[C@]2(C)C2CCC3(C)C(c4ccoc4)C(=O)C4OC43[C@]12C` (some centres not stated): the GI50 with ACHN is 24.2 µM (inactive); in the experiment with CAKI-1, 28.5 µM (inactive); with HCT-15 it was 14.4 µM; with KM12 it was 15.1 µM (inactive); with LOX IMVI it was 13.2 µM (inactive); with MOLT-4, 13.4 µM (inactive). Moreover, the GI50 is 15.2 µM (inactive) in the experiment on Malme-3M; 16.2 µM (inactive) in the experiment with NCI-H226; 12.9 µM (inactive) in the experiment with NCI-H522; 18.3 µM (inactive) with OVCAR-3; 15.1 µM (inactive) in the experiment with OVCAR-4; 20.8 µM (inactive) in the experiment on OVCAR-8. Moreover, the GI50 with SF-539 was 20.1 µM (inactive); in the experiment on SK-OV-3, 13.2 µM (inactive); with SN12C it was 15.2 µM (inactive); with SNB-19, 31.3 µM (inactive); in the experiment with UACC-257, 15.7 µM (inactive); with UO-31 it was 20.2 µM (inactive).
